Data on eight compounds can be found in article PMC5515844, “A new Prenylated Flavonoid induces G0/G1 arrest and apoptosis through p38/JNK MAPK pathways in Human Hepatocellular Carcinoma cells” (Scientific Reports, 2017).

Like-named read-outs stand apart in the source and are kept apart here.

The subject of one assay is Hep3B. The experiment in a line: MTT cytotoxicity assay. Format: cell-based, human. As to conditions: for IC50: Homo sapiens, 48 h, mean ± SD; for effect of inhibitor on the reduction of cell viability by daphnegiravone D: pretreated with 10 μM inhibitor 1 h, then 2 μM daphnegiravone D 48 h. Here is the method:
(§1) HepG2 and Hep3B (human hepatoma cells), Bcap37 and MCF-7 (human breast cancer cells), TE-1 (human esophageal cancer cells), A549 (human lung carcinoma cells), U251 and U87 (human glioma cells), were cultured in Dulbecco’s modified Eagle’s medium (DMEM) supplemented with 10% fetal bovine serum (FBS) and 1% penicillin/streptomycin (10000 U/mL penicillin, 10000 μg/ml streptomycin). SH-SY5Y (human neuroblastoma cells), LO2 (human normal liver cell) were grown in RPMI 1640 containing 10% FBS and 100 µg/ml penicillin, 100 µg/ml streptomycin. HepG2, Hep3B, MCF-7, TE-1, A549, U87, U251 and SHSY5Y cells were obtained from the American Type Culture Collection (Manassas, VA, USA). Bcap37 and LO2 cells were purchased from the Cell Bank of Chinese Academy of Sciences (Shanghai, China). All cells were incubated in a humidified atmosphere containing 5% CO2 at 37 °C.
(§2) Cells seeded in 96-well plates with 5 × 10^3 cells/well were adhered overnight and incubated with vehicle control (DMSO) or diverse concentrations of compounds for 48 h. After treatment, 20 μL of MTT (5 mg/mL) was added to each well and incubated for another 4 h at 37 °C. Then, 150 μL of DMSO/well was appended after removed the supernatant to dissolve the formed purple formazan crystals and the color absorbance was measured at 490 nm using a microplate reader (Molecular Devices, Thermo, CA, USA). The inhibition rate (%) was calculated as (A490(control) − A490(drug groups))/(A490(control) − A490(blank)) × 100 and the value of IC50 (the concentration that caused 50% inhibition of cell viability) was determined using SPSS 20.0. This experiment was measured in triplicate, independently.

The next assay has as its system HepG2. The experiment in a line: MTT cytotoxicity assay. Format: cell-based, human. As to conditions: for IC50: Homo sapiens, HepG2, MTT, 48 h, mean ± SD; for effect of inhibitor on the reduction of cell viability by daphnegiravone D: HepG2, MTT, pretreated with 10 μM inhibitor 1 h, then 10 μM daphnegiravone D 48 h. Here is the method: as §1, §2
On the technique in general: Formazan colour is commonly taken as a measure of viable cells.

The test system of the next assay is A549. As to the kind of experiment: MTT cytotoxicity assay. It is filed as cell-based. As to conditions: Homo sapiens, 48 h, mean ± SD. Here is the method: as §1, §2
The subject of the next assay is Bcap37. As to the kind of experiment: MTT cytotoxicity assay. Format: cell-based. As to conditions: Homo sapiens, 48 h, mean ± SD. Here is the method: as §1, §2
For a further assay, the system named is MCF-7. As to the kind of experiment: MTT cytotoxicity assay. Format: cell-based. As to conditions: Homo sapiens, MCF7, 48 h, mean ± SD. Here is the method: as §1, §2
The next assay deals with SH-SY5Y. As to the kind of experiment: MTT cytotoxicity assay. Format: cell-based. The following applies: Homo sapiens, 48 h, mean ± SD. As to the method: as §1, §2
A further assay has as its system TE-1. As to the kind of experiment: MTT cytotoxicity assay. Format: cell-based. As to conditions: Homo sapiens, 48 h, mean ± SD. Here is the method: as §1, §2
A further assay has as its system U251. The experiment in a line: MTT cytotoxicity assay. It is filed as cell-based. As to conditions: Homo sapiens, U-251, 48 h, mean ± SD. Here is the method:
as §1, §2

A further assay relates to U87. The experiment in a line: MTT cytotoxicity assay. It is filed as cell-based. As to conditions: Homo sapiens, U-87 MG, 48 h, mean ± SD. Here is the method:
as §1, §2

The next assay relates to LO2. The experiment in a line: MTT cytotoxicity assay, normal hepatic cells. It is filed as cell-based. The following applies: Homo sapiens, L02, 48 h, mean ± SD. Here is the method:
as §1, §2

The test system of assay [1] is nine human cancer cell lines and one normal hepatic cell line. The experiment in a line: MTT cytotoxicity assay, summary over the cell line panel. It is filed as cell-based. As to the method:
as §1, §2

In the next assay the test system is HepG2 cells. Further details: method as in PMID 25446044. As to conditions: cited from earlier work.
[2] abbreviates: most cancer cell lines, read-out: IC50 values against most cancer cell lines.
[3] abbreviates: most cell lines, read-out: IC50 values against most cell lines.

Usually IC50 stands for the concentration at which inhibition is half-maximal. On to `COc1c(-c2ccc(O)c(O)c2)oc2c(CC=C(C)C)c(O)c(CC=C(C)C)c(O)c2c1=O` [Compound 2, broussoflavonol B], for which the IC50 with Hep3B was 14.2 ± 1.56 µM; with HepG2, 26.1 ± 1.89 µM; in the assay on A549 it was 15 ± 1.21 µM; with Bcap37, 42.4 ± 4.83 µM; with MCF-7, 19.2 ± 1.76 µM; with SH-SY5Y, 13.5 ± 0.95 µM. For the same compound, the IC50 with TE-1 was 20 ± 2.3 µM; with U251, 19.8 ± 1.53 µM; in the assay with U87, 20.3 ± 2.08 µM; in the assay with LO2 it was 22.4 ± 2.63 µM; in assay [1] (setting [2]), ~20 µM.
With `CC(C)=CCc1c(-c2ccc(O)cc2O)oc2c3c(cc(O)c2c1=O)OC(C)(C)C=C3` [Compound 3, morusin], the 50% inhibitory concentration (IC50) in the assay with Hep3B turned out to be 14.2 ± 1.87 µM; in the assay with HepG2, 9.76 ± 0.94 µM; with A549, 23.9 ± 1.97 µM; in the assay on Bcap37, 31 ± 2.34 µM; in the assay on MCF-7, 13.5 ± 2.51 µM; in the assay on SH-SY5Y, 45.4 ± 3.24 µM. In addition, the IC50 in the assay on TE-1 was 22.8 ± 1.79 µM; in the assay on U251 it was 17.1 ± 2.22 µM; in the assay with U87, 23.4 ± 2.79 µM; with LO2, 28.2 ± 3.14 µM; in assay [1] (setting [2]), ~20 µM.
`COc1c(-c2cc(O)c3c(c2)C=CC(C)(C)O3)oc2c(CC=C(C)C)c(O)cc(O)c2c1=O` [Compound 4, daphnegiravone A]: the IC50 is > 100 µM with Hep3B; 36.7 ± 2.21 µM with HepG2; 66.8 ± 4.3 µM with A549; > 100 µM in the assay with Bcap37; > 100 µM in the assay on MCF-7; 74.4 ± 4.87 µM in the assay on SH-SY5Y. The IC50 in the assay with TE-1 is > 100 µM; in the assay on U251 it was > 100 µM; in the assay with U87, 71 ± 4.36 µM; with LO2, > 100 µM; in assay [1] (setting [3]) it was > 50 µM.
As to `CC(C)=CCc1cc([C@@H]2CC(=O)c3ccc(O)cc3O2)c2c(c1O)OC(C)(C)CC2` [Compound 5, daphnegiravone C], the IC50 in the assay on Hep3B was 55.4 ± 3.97 µM; with HepG2, > 100 µM; in the assay with A549, 20 ± 1.31 µM; in the assay with Bcap37, > 100 µM; in the assay on MCF-7, > 100 µM; with SH-SY5Y, 54.8 ± 3.72 µM. Moreover, the IC50 was > 100 µM in the assay on TE-1; > 100 µM in the assay on U251; 49.9 ± 3.87 µM in the assay on U87; > 100 µM in the assay with LO2; > 50 µM in [1] (setting [3]).
As to `O=c1[nH]cc(F)c(=O)[nH]1` [Compound 5FU, 5-Fluorouracil, reference compound], the IC50 with Hep3B was 10.4 ± 1.44 µM; in the assay with HepG2, 47.1 ± 3.68 µM; with A549, 31.9 ± 2.74 µM; with Bcap37 it was 44.1 ± 3.82 µM; in the assay on MCF-7 it was 42.3 ± 3.03 µM; in the assay on SH-SY5Y it was 18.6 ± 1.38 µM. Besides, the IC50 in the assay on TE-1 was found to be 26.7 ± 2.01 µM; with U251, 42.6 ± 3.49 µM; in the assay with U87 it was 20.2 ± 1.98 µM; with LO2, 31.9 ± 3.78 µM.
`C[S+]([O-])c1ccc(-c2nc(-c3ccncc3)c(-c3ccc(F)cc3)[nH]2)cc1` (centres unmarked) [SB203580, reference compound]: the “effect of inhibitor on the reduction of cell viability by daphnegiravone D” value with Hep3B and in the assay with HepG2 was “abolished” in each case.
On to `Oc1c2ccccc2c2c3c(cccc13)N=N2` [SP600125, reference compound], for which the “effect of inhibitor on the reduction of cell viability by daphnegiravone D” value in the assay on Hep3B and in the assay with HepG2 was “exacerbated” each time.
Turning to Kurzphenol C, in the assay on HepG2 cells, the “inhibitory effect on HepG2 cells” value is “weak inhibitory effect”.
